In patent US20150208649A1, “NOVEL COMPOSITIONS COMPRISING P-HYDROXYBENZYLAMINE” (DSM IP ASSETS B.V., priority 2012, published 2015):
≈ marks a conversion by molar mass, not a printed value. Blank lines part the entries; values can stand above or below the molecule they belong to.

Experiments:
Experiment in all cases: MIC, agar dilution method according to DIN 58 940
Format in all cases: cell-based
[1] = system: Aspergillus brasiliensis (A. brasiliensis) ATCC 16404; settings: for MIC: Aspergillus brasiliensis, ATCC16404, single compound; for MIC mix: 78 h; for ratio [MIC (single)/(MIC (mixture)]): >1 indicates a synergistic effect
Procedure: (§1) The antimicrobial activity was assessed by determination of the Minimum Inhibitory Concentration (MIC) using the agar dilution method according to DIN 58 940 at the Labor L+SAG, D-Bad Bocklet-Grossenbrach.
(§2) Culture plates with a diameter of 5.5 cm were prepared with fresh, kept liquid (50° C.) Mueller-Hinton Agar (double concentrated, Merck 1.05437)/aqua purificata comprising the compound/compound mixtures in the concentrations indicated in Table 1 according to standard methods. After solidifying and drying (about 1 h at 36° C.), the culture plates were inoculated with 1 μl of a suspension of the respective microorganism with the colony forming unit as outlined in table 1. The inoculated plates were then incubated at 36° C. The MIC's (i.e. the concentrations where still no growth could be observed) were determined after 18 h for E. coli, P. aeruginosa and S. aureus; after 48 h for P. acnes and after 78 h for A. brasiliensis and C. albicans. Per sample two culture plates were prepared. As control incubated and non-incubated cultures were used.
(§3) The suspensions of the microorganisms No. 1-4 were prepared by homogeneous suspension of 3-5 colonies of the same morphology in physiological NaCl-solution. The suspensions were adjusted such, that the haze corresponded to the Mac Farland standard 1.0 (about 3.0*10^8 KBE*/ml). For the preparation of the suspensions of the microorganisms 5 and 6, the microorganisms have been taken with a sterile swab and diluted in an amount of physiological NaCl solution such, that the haze corresponded to the Mac Farland standard 1.0. Afterwards the suspensions of the microorganisms 1 and 3-6 have been further diluted with physiological NaCl-solution in a ratio of 1:10. The colony count was determined using a spiral plater system (see table 2).

[2] = system: Candida albicans (C. albicans) ATCC 10231; settings: for MIC: Candida albicans, ATCC10231, single compound; for MIC mix: 78 h; for ratio [MIC (single)/(MIC (mixture)]): >1 indicates a synergistic effect
Procedure: as §1, §2, §3

[3] = system: Escherichia coli (E. coli) ATCC 8739; settings: for MIC: Escherichia coli, ATCC8739, single compound; for MIC mix: 18 h; for ratio [MIC (single)/(MIC (mixture)]): >1 indicates a synergistic effect
Procedure: as §1, §2, §3

[4] = system: Propionibacterium acnes (P. acnes) ATCC 11828; settings: for MIC: Cutibacterium acnes, ATCC11828, single compound; for MIC mix: 48 h; for ratio [MIC (single)/(MIC (mixture)]): >1 indicates a synergistic effect
Procedure: as §1, §2, §3

[5] = system: Pseudomonas aeruginosa (P. aeruginosa) ATCC 9027; settings: for MIC: Pseudomonas aeruginosa, ATCC9027, single compound; for MIC mix: 18 h; for ratio [MIC (single)/(MIC (mixture)]): >1 indicates a synergistic effect
Procedure: as §1, §2, §3

[6] = system: Staphylococcus aureus (S. aureus) ATCC 6538; settings: for MIC: Staphylococcus aureus, ATCC6538, single compound; for MIC mix: 18 h; for ratio [MIC (single)/(MIC (mixture)]): >1 indicates a synergistic effect
Procedure: as §1, §2, §3

[7] = concentration of the component in mixture pHBA/MI
[8] = concentration of the component in mixture pHBA/MP
[9] = concentration of the component in mixture pHBA/PE
[10] = single compound, 78 h at 36° C.
[11] = single compound, 18 h at 36° C.

MIC ([1]; 78 h at 36° C.): 5270 µg/mL (≈ 42.8 mM)
MIC mix [1, 7]: 980 µg/mL (≈ 7.96 mM)
MIC mix [1, 8]: 1050 µg/mL (≈ 8.53 mM)
MIC mix [1, 9]: 2340 µg/mL (≈ 19 mM)
ratio [MIC (single)/(MIC (mixture)]) ([1]; mixture pHBA/MI): 5.38
ratio [MIC (single)/(MIC (mixture)]) ([1]; mixture pHBA/MP): 5.02
ratio [MIC (single)/(MIC (mixture)]) ([1]; mixture pHBA/PE): 2.25
MIC ([2]; 78 h at 36° C.): 5270 µg/mL (≈ 42.8 mM)
MIC mix [2, 7]: 980 µg/mL (≈ 7.96 mM)
MIC mix [2, 8]: 1580 µg/mL (≈ 12.8 mM)
MIC mix [2, 9]: 2340 µg/mL (≈ 19 mM)
ratio [MIC (single)/(MIC (mixture)]) ([2]; mixture pHBA/MI): 5.38
ratio [MIC (single)/(MIC (mixture)]) ([2]; mixture pHBA/MP): 3.34
ratio [MIC (single)/(MIC (mixture)]) ([2]; mixture pHBA/PE): 2.25
MIC ([3]; 18 h at 36° C.): 5270 µg/mL (≈ 42.8 mM)
MIC mix [3, 7]: 980 µg/mL (≈ 7.96 mM)
MIC mix [3, 8]: 1580 µg/mL (≈ 12.8 mM)
MIC mix [3, 9]: 3510 µg/mL (≈ 28.5 mM)
ratio [MIC (single)/(MIC (mixture)]) ([3]; mixture pHBA/MI): 5.38
ratio [MIC (single)/(MIC (mixture)]) ([3]; mixture pHBA/MP): 3.34
ratio [MIC (single)/(MIC (mixture)]) ([3]; mixture pHBA/PE): 1.50
MIC ([4]; 48 h at 36° C.): 7900 µg/mL (≈ 64.1 mM)
MIC mix [4, 7]: 650 µg/mL (≈ 5.28 mM)
MIC mix [4, 8]: 3560 µg/mL (≈ 28.9 mM)
MIC mix [4, 9]: 5270 µg/mL (≈ 42.8 mM)
ratio [MIC (single)/(MIC (mixture)]) ([4]; mixture pHBA/MI): 12.15
ratio [MIC (single)/(MIC (mixture)]) ([4]; mixture pHBA/MP): 2.22
ratio [MIC (single)/(MIC (mixture)]) ([4]; mixture pHBA/PE): 1.50
MIC ([5]; 18 h at 36° C.): 5270 µg/mL (≈ 42.8 mM)
MIC mix [5, 7]: 650 µg/mL (≈ 5.28 mM)
MIC mix [5, 8]: 2400 µg/mL (≈ 19.5 mM)
MIC mix [5, 9]: 3510 µg/mL (≈ 28.5 mM)
ratio [MIC (single)/(MIC (mixture)]) ([5]; mixture pHBA/MI): 8.11
ratio [MIC (single)/(MIC (mixture)]) ([5]; mixture pHBA/MP): 2.20
ratio [MIC (single)/(MIC (mixture)]) ([5]; mixture pHBA/PE): 1.50
MIC ([6]; 18 h at 36° C.): 5270 µg/mL (≈ 42.8 mM)
MIC mix [6, 7]: 2200 µg/mL (≈ 17.9 mM)
MIC mix [6, 8]: 3560 µg/mL (≈ 28.9 mM)
MIC mix [6, 9]: 7900 µg/mL (≈ 64.1 mM)
ratio [MIC (single)/(MIC (mixture)]) ([6]; mixture pHBA/MI): 2.4
ratio [MIC (single)/(MIC (mixture)]) ([6]; mixture pHBA/MP): 1.48
ratio [MIC (single)/(MIC (mixture)]) ([6]; mixture pHBA/PE): 0.67
Compound: NCc1ccc(O)cc1 [pHBA, p-Hydroxybenzylamine]

Compound: Cn1sccc1=O [MI, Methylisothiazolinone, reference compound]
MIC mix [1, 7]: 20 µg/mL (≈ 0.174 mM)
ratio [MIC (single)/(MIC (mixture)]) ([1]; mixture pHBA/MI): 1.50
MIC single [1, 10]: 30 µg/mL (≈ 0.261 mM)
MIC mix [2, 7]: 20 µg/mL (≈ 0.174 mM)
ratio [MIC (single)/(MIC (mixture)]) ([2]; mixture pHBA/MI): 1.50
MIC single [2, 10]: 30 µg/mL (≈ 0.261 mM)
MIC mix [3, 7]: 20 µg/mL (≈ 0.174 mM)
ratio [MIC (single)/(MIC (mixture)]) ([3]; mixture pHBA/MI): 1.00
MIC single [3, 11]: 20 µg/mL (≈ 0.174 mM)
MIC single ([4]; single compound, 48 h at 36° C.): 30 µg/mL (≈ 0.261 mM)
MIC mix [5, 7]: <10 µg/mL
ratio [MIC (single)/(MIC (mixture)]) ([5]; mixture pHBA/MI): >100
MIC single [5, 11]: 40 µg/mL (≈ 0.347 mM)
MIC mix [6, 7]: 40 µg/mL (≈ 0.347 mM)
ratio [MIC (single)/(MIC (mixture)]) ([6]; mixture pHBA/MI): 1.75
MIC single [6, 11]: 70 µg/mL (≈ 0.608 mM)

MIC ([1]; 78 h at 36° C.): 390 µg/mL (≈ 2.56 mM)
MIC mix [1, 8]: 260 µg/mL (≈ 1.71 mM)
ratio [MIC (single)/(MIC (mixture)]) ([1]; mixture pHBA/MP): 1.50
MIC ([2]; 78 h at 36° C.): 590 µg/mL (≈ 3.88 mM)
MIC mix [2, 8]: 390 µg/mL (≈ 2.56 mM)
ratio [MIC (single)/(MIC (mixture)]) ([2]; mixture pHBA/MP): 1.51
MIC ([3]; 18 h at 36° C.): 890 µg/mL (≈ 5.85 mM)
MIC mix [3, 8]: 390 µg/mL (≈ 2.56 mM)
ratio [MIC (single)/(MIC (mixture)]) ([3]; mixture pHBA/MP): 2.28
MIC ([4]; 48 h at 36° C.): 1330 µg/mL (≈ 8.74 mM)
MIC mix [4, 7]: <10 µg/mL
MIC mix [4, 8]: 890 µg/mL (≈ 5.85 mM)
ratio [MIC (single)/(MIC (mixture)]) ([4]; mixture pHBA/MI): >100
ratio [MIC (single)/(MIC (mixture)]) ([4]; mixture pHBA/MP): 1.49
MIC ([5]; 18 h at 36° C.): 2000 µg/mL (≈ 13.1 mM)
MIC mix [5, 8]: 590 µg/mL (≈ 3.88 mM)
ratio [MIC (single)/(MIC (mixture)]) ([5]; mixture pHBA/MP): 3.39
MIC ([6]; 18 h at 36° C.): 2000 µg/mL (≈ 13.1 mM)
MIC mix [6, 8]: 890 µg/mL (≈ 5.85 mM)
ratio [MIC (single)/(MIC (mixture)]) ([6]; mixture pHBA/MP): 2.25
Compound: COC(=O)c1ccc(O)cc1 [MP, Methylparabene, reference compound]
